According to article PMC4021201, “Repositioning: the fast track to new anti-malarial medicines?” (Malaria Journal, 2014):
Several values for one entry are separate records, joined by “and”; a condition that tells them apart may be missing. Equal entries are not always repeated. Where two headings read alike, the source gives them in different places.

Tests used:
[1] = tested on: human hepatoma Hep G2 cell line; assay: Hep G2 cytotoxicity assay (AstraZeneca); assay type: cell-based; conditions: HepG2, 72 h
Excerpt: (§1) AZ also used a SYBR® I EC50 determination assay, but with P. falciparum NF54 (MRA-1000, MR4, ATCC, Manassas, VA, USA). The per cent inhibition with respect to the control was plotted against the logarithm of the drug concentration. The curve was fitted by non-linear regression using the sigmoidal dose–response (variable slope) formula to yield the concentration–response curves. The concentration at which 50% inhibition was observed was taken as the EC50 value of the compound. A cytotoxicity assay was also performed by AZ, using the human hepatoma Hep G2 cell line and the per cent inhibition and EC50 values were calculated as described for P. falciparum.
The human hepatoma Hep G2 cell line was used for the cytotoxicity assay. 1 µL of compound was dispensed in a 10 point concentration response format using a Biomek Fx liquid dispenser into white sterile 384-well opaque bottom plates (C3570, Corning Life Sciences). To this, 50 µL of Hep G2 cells at 3000 cells/well was added using a Multidrop dispenser. The plates were then incubated at 37 °C for 72 h in a 5% CO2 incubator. Resazurin at a final concentration of 10 µM was added to all wells and the plates were incubated at room temperature for 4 h. Fluorescence (excitation 535 nm; emission 590 nm) was measured in a Safire 2 fluorimeter. The % inhibition with respect to the control was plotted against the logarithm of the drug concentration. […]

[2] = tested on: P. berghei; assay: Plasmodium berghei four-day suppression test; assay type: in vivo; conditions: 100–200 mg/kg BID oral, four days, BALB/c mice, with oral aminobenzotriazole 100 mg/kg
Protocol: AZ compounds were tested by the company for in vivo efficacy in a standard four-day suppression test using the rodent malaria parasite P. berghei. All animal experimentation protocols were approved by the Institutional Animal Ethics Committee registered with the Government of India (Registration No: 5/1999/CPCSEA). Adult male BALB/c mice (purchased from RCC Laboratories, Hyderabad, India) were used for efficacy studies. Animals were randomly distributed to cages quarantined for one week with veterinary examination and then taken into experimentation. Feed and water were given ad libitum. Briefly, male BALB/c mice were infected intraperitoneally with 2×10^7 infected erythrocytes on day 0. […] On day 3, per cent parasitaemia was estimated microscopically from a Giemsa-stained blood smear. The effect of the test compound on parasite growth was calculated as the difference between the mean value of the control group (taken as 100%) and those of the experimental group and expressed as per cent reduction. Reference anti-malarial compounds (chloroquine and artemisinin) were used as positive controls and the results obtained matched those published in the literature. Pharmacokinetics were analysed in healthy as well as infected mice. Data from healthy mice were used for designing the dosing regimen for the efficacy studies. […]

[3] = tested on: P. falciparum NF54; assay: SYBR I EC50 determination assay (AstraZeneca); assay type: cell-based; conditions: Plasmodium falciparum; P. falciparum strain NF54; 72 h; read-out: Pf EC50
Excerpt: as §1
AstraZeneca. This group also used a SYBR® I IC50 determination assay. Compounds were serially diluted in 384 well plates (C3570, Corning Life Sciences). 1 µL of compound was dispensed in a 10 point concentration response format using a Biomek Fx liquid dispenser. To this, 50 µL of P. falciparum NF54 (MRA-1000, MR4, ATCC, Manassas, Virginia) ring stage culture at 2% parasitemia and 0.3 % hematocrit was added using a multidrop dispenser. […] After incubation, the % parasitemia in one of the untreated culture control wells was determined by light microscopy. […] Green fluorescence (485 nm excitation/ 530 nm emission) was measured using the Safire 2 fluorimeter (Tecan Instruments). […]

[4] = tested on: P. falciparum 3D7; assay: SYBR I dye DNA staining assay (Pfizer), P. falciparum 3D7; conditions: Plasmodium falciparum, 3D7, read-out: EC50 3D7
Protocol: (§2) Cultures of P. falciparum 3D7 and K1 (both from David Baker, LSHTM) were maintained in O+ human erythrocytes (Research Red Cells and Blood Transfusion Service). 384-well assay plates contained 250 nL of compound at a serial dilution of 1:3 in 100% DMSO, starting from 200 µM (in the plate i.e. 20 µM final) and minimum and maximum controls. After addition of 50 μL of infected erythrocytes per well, plates were incubated at 37°C for three days in 5% CO2, 5% O2 and 90% N2. […] Percent anti-malarial activity was calculated relative to the minimum and maximum controls for each of the 11 drug concentrations and EC50 values determined from the resulting data plot.

[5] = parameters: method as in data provided by Pfizer; conditions: human, single doses from 10 mg to 480 mg; ref data provided by Pfizer; cited from earlier work
[6] = tested on: P. falciparum K1; assay: SYBR I dye DNA staining assay (Pfizer), P. falciparum K1; conditions: Plasmodium falciparum, K1, read-out: EC50 K1
Protocol: as §2

[7] = tested on: P. falciparum Pf3D7^0087/N9; assay: Plasmodium falciparum huSCID humanized mouse model, four-day test
Protocol: In vivo testing using this model was performed by GSK at Tres Cantos, against P. falciparum 3D7 (in vivo strain Pf3D7^0087/N9generated by GSK using Pf3D7 obtained from Eduardo Dei-Cas, Institute Pasteur, Lille, France [36]) growing in peripheral blood of female NOD-scid IL-2Rγ^null mice engrafted with human erythrocytes, i e, a ‘humanized’ mouse model, following published protocols [36, 37]. Briefly, animals were infected intravenously with 20×10^6 infected erythrocytes on day 0. […] Dosing was initiated at the maximum tolerated dose in mice on day 3 after infection and continued once daily for four days. Each experimental group was n = 3 mice unless otherwise stated. Control animals received vehicle only and a quality control assay used chloroquine at target doses of 3 mg/kg and 7 mg/kg. Venous blood samples for parasitology (2 μL) were taken at days 3, 5, and 7 after infection. Anti-malarial efficacy was assessed using a standard four-day test (i e, at day 7) and blood parasitaemia was measured by fluorescence-activated cell sorting (FACS) analysis [38]. The limit of detection (per cent of P. falciparum) was 0.01%. The number of parasites ×10^6 cells was recorded and data were analysed by non-linear fitting to a logistic equation of log10 (per cent parasitaemia at day 7 after infection) versus the dose level administered.
Per cent parasitaemia at day 7 after infection in treated versus control animals was analysed using a one factor ANOVA with Tukey’s post-test analysis. […] ED90 was calculated similarly. Analysis was performed using WinNonlin 5.2 and GraphPad Prism 5.0.

[8] = Pharmacokinetics in P. falciparum-infected humanized mice; conditions: for Cmax / Tmax: NOD-scid IL-2Rγ^null, mouse, po; for Cmax / Tmax / AUC (0–t): whole blood; for DNAUC(0–t): dose-normalized AUC(0–t); for DNAUC(0–t) / AUC (0–t): mean (SD)
Protocol: The pharmacokinetics of compounds after oral administration was determined concurrently in the same mice used for the therapeutic efficacy assay. Samples were taken at 0.25, 0.5, 1, 3, 6, 8, and 24 hours after the first dose. Compound levels were measured in 25 μL blood samples that were mixed with 25 μL of saponin (0.1% in water) and processed under standard liquid–liquid extraction conditions [39]. Pharmacokinetic parameters were calculated using WinNonlin 5.2 non-compartmental analysis.

[9] = molecular target: hERG (Homo sapiens, UniProt Q12809); assay: Independently run hERG assay
hERG, sequence (Q12809 whole entry): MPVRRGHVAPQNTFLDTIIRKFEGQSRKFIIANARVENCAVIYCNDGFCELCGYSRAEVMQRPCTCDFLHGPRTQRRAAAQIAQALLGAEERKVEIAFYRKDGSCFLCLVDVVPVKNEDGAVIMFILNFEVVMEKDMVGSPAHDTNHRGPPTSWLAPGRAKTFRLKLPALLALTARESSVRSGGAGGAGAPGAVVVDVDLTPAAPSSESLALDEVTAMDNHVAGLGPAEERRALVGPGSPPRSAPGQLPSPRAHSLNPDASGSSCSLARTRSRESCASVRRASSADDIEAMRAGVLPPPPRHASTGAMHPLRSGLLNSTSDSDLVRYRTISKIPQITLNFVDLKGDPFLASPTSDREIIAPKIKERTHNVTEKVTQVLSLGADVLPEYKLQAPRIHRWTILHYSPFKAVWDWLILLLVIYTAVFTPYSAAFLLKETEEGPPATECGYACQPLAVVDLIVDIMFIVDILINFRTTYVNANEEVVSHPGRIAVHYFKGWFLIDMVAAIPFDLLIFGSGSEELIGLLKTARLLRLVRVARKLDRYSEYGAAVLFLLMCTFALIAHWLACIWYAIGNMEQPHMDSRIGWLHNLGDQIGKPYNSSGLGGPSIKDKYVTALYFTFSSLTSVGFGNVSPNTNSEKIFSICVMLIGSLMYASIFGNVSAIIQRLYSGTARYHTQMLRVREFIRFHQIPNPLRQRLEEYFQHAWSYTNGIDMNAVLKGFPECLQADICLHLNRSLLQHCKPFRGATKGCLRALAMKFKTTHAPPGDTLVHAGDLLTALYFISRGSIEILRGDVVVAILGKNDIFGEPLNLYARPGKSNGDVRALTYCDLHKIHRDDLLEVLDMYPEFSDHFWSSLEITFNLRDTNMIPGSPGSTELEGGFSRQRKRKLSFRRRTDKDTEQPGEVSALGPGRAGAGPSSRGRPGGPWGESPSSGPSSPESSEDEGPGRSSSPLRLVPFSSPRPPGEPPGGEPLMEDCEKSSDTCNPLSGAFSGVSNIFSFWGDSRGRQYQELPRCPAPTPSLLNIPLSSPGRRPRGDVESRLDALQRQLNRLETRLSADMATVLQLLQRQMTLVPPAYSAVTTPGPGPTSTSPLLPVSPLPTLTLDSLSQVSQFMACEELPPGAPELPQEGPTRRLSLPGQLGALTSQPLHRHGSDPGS

| EC50 [3] | SMILES | EC50 [1] | growth inhibition in P. berghei-infected mice [2] | EC50 [4] | Cmax [5] | EC50 [6] | ED50 ([7]; Plasmodium falciparum, in Mus musculus, parasitaemia at day 7 after infection, once daily for four days, mean (95% CI)) | AUCED90 ([7]; blood exposure needed to inhibit parasitaemia at day 7 by 90% vs vehicle) | ED90 ([7]; parasitaemia at day 7 after infection, once daily for four days, mean (95% CI)) | Cmax ([8]; 100 mg/kg) | Tmax ([8]; 100 mg/kg) | Cmax ([8]; 300 mg/kg) | Tmax ([8]; 300 mg/kg) | DNAUC(0–t) ([8]; target dose 100 mg/kg oral) | DNAUC(0–t) ([8]; target dose 300 mg/kg oral) | AUC (0–t) ([8]; target dose 100 mg/kg oral) | AUC (0–t) ([8]; target dose 300 mg/kg oral) | hERG [9] |
| --- | --- | --- | --- | --- | --- | --- | --- | --- | --- | --- | --- | --- | --- | --- | --- | --- | --- | --- |
| 600 nM | CC(C)Oc1cc(Nc2nc(N[C@@H](C)c3ccc(F)cn3)ncc2Cl)n[nH]1 [AZ-1] | 10400 nM | 50–60% |  |  |  |  |  |  |  |  |  |  |  |  |  |  |  |
|  | Cc1nc2cnccc2n1-c1ccc(C(=O)N2CCC(=C3c4ccc(Cl)cc4CCc4cccnc43)CC2)cc1 [UK-112,214] |  |  | 550 nM | 14 to 4145 ng/mL | 600 nM | 80.6 mg/kg | 111.5 μg · h · mL^−1 · day^−1 and 111.5 (106.6, 121.1) μg · h · mL^−1 · day^−1 | 131.3 mg/kg and 131.3 (112.3, 156.7) mg/kg | 8610 ng/mL | 4 h | 17600 ng/mL | 3.3 h | 0.859 (0.32) μg · h · mL^−1 · day^−1 | 1.03 (0.45) μg · h · mL^−1 · day^−1 | 72.1 (2.7) μg · h · mL | 231 (101) μg · h · mL | 2.8 µM |
